Blank lines part the entries; values can stand above or below the compound they belong to.
Experiments:
[1] = target: Multidrug resistance protein 1a (Rattus norvegicus) (UniProt Q6PSM0); experiment: TP_TRANSPORTER: increase in Vinblastine intracellular accumulation (Vinblastine: 0.0125 uM, Rifamycin B: 200 uM) in RHC1 cells; format: functional, cell-based
[2] = target: ATP-dependent translocase ABCB1 (Homo sapiens, UniProt P08183); experiment: TP_TRANSPORTER: inhibition of Azidopine photoaffinity labelling (Rifampicin: 200 uM) in membranes from K562 R7 cells; format: functional, cell membranes, Membrane; conditions: k562/r7, 200 µM
[3] = target: Multidrug resistance protein 1a (Rattus norvegicus) (UniProt Q6PSM0); experiment: TP_TRANSPORTER: increase in Vinblastine intracellular accumulation (Vinblastine: 0.0125 uM, Rifampicin: 200 uM) in RHC1 cells; format: functional, cell-based
[4] = target: Multidrug resistance protein 1a (Rattus norvegicus) (UniProt Q6PSM0); experiment: TP_TRANSPORTER: increase in Vinblastine intracellular accumulation (Vinblastine: 0.0125 uM, Rifamycin SV: 200 uM) in RHC1 cells; format: functional, cell-based

Multidrug resistance protein 1a (Rattus norvegicus), sequence (Q6PSM0 as listed by the source): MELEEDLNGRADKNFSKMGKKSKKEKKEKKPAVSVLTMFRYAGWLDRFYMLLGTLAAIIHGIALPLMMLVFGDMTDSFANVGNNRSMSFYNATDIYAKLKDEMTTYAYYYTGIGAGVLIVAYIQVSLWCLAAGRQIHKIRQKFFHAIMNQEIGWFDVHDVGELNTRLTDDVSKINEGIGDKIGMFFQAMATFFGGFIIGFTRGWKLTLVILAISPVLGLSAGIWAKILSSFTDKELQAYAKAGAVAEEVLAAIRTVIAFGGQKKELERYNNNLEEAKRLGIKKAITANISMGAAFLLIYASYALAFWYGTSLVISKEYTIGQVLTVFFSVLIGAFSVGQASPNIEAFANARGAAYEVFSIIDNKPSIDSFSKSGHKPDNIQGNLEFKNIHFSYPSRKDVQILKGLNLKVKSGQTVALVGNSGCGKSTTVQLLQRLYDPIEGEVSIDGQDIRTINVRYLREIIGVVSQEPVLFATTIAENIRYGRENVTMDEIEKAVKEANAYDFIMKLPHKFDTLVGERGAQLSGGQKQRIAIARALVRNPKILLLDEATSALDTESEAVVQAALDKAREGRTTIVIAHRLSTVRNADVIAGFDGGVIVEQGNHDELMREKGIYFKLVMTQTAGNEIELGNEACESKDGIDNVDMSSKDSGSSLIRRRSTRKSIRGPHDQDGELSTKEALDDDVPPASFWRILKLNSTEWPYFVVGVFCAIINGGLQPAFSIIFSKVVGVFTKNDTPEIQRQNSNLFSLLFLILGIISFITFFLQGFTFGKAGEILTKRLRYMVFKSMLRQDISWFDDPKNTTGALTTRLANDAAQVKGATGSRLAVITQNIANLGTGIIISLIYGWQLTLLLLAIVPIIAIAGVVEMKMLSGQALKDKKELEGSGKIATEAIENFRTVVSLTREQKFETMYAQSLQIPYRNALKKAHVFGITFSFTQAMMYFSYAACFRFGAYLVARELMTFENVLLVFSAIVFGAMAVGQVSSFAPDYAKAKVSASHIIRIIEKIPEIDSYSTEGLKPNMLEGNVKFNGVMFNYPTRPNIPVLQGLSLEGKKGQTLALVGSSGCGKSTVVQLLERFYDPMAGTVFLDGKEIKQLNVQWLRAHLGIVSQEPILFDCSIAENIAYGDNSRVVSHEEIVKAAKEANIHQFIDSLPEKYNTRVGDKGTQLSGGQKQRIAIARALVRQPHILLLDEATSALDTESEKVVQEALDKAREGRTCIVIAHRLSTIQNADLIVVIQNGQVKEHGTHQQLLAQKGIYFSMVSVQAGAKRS
ATP-dependent translocase ABCB1, sequence (P08183 whole entry): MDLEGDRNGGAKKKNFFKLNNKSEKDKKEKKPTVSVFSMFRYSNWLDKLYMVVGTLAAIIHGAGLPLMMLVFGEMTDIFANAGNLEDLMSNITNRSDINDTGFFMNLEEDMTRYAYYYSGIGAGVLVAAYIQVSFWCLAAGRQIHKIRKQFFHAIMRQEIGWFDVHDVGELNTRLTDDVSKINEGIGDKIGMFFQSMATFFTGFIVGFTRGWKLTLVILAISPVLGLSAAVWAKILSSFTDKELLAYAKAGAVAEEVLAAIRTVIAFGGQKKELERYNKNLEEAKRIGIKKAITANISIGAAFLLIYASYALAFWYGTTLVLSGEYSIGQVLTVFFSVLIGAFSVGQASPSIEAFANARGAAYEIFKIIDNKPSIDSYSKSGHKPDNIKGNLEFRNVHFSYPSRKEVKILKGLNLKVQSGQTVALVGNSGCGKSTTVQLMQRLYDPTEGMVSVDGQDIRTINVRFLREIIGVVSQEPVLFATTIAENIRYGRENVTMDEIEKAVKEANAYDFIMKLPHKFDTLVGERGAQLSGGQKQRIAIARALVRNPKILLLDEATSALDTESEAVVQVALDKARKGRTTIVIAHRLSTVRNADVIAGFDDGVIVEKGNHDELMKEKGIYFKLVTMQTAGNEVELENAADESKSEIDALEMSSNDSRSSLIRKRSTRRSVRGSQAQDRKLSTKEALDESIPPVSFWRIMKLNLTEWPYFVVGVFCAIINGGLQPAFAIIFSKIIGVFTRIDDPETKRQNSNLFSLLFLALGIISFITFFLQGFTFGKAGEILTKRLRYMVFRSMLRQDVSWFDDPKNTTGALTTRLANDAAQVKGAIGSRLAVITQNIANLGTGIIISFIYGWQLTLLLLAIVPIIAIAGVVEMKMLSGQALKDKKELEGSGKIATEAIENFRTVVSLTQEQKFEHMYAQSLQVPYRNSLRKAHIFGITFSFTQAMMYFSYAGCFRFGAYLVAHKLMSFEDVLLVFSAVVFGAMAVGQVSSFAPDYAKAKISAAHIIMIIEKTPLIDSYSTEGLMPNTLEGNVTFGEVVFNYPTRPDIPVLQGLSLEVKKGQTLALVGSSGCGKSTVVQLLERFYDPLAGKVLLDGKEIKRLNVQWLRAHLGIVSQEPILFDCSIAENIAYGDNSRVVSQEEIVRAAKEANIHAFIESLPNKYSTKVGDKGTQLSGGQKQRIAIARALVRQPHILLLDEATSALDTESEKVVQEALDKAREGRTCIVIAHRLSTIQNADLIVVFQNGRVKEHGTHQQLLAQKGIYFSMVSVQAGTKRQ

Activity [1]: is not an inhibitor [-]
Structure (SMILES): COC1/C=C/OC2(C)Oc3c(C)c(O)c4c(O)c(cc(OCC(=O)Nc5ccc(I)cc5)c4c3C2=O)NC(=O)/C(C)=C\C=C\C(C)C(O)C(C)C(O)C(C)C(OC(C)=O)C1C (centres undefined)

Activity [2]: inhibitor [+]
Activity [3]: inhibitor [+]
Structure (SMILES): CO[C@H]1/C=C/O[C@@]2(C)Oc3c(C)c(O)c4c(O)c(c(/C=N/N5CCN(C)CC5)c(O)c4c3C2=O)NC(=O)/C(C)=C\C=C\[C@H](C)[C@H](O)[C@@H](C)[C@@H](O)[C@@H](C)[C@H](OC(C)=O)[C@@H]1C [RIFAMPIN]

Activity [4]: inhibitor [+]
Structure (SMILES): CO[C@H]1/C=C/O[C@@]2(C)Oc3c(C)c(O)c4c(O)c(cc(O)c4c3C2=O)NC(=O)/C(C)=C\C=C\[C@H](C)[C@H](O)[C@@H](C)[C@@H](O)[C@@H](C)[C@H](OC(C)=O)[C@@H]1C

— ChEMBL document CHEMBL2074349, “Rifampicin enhances anti-cancer drug accumulation and activity in multidrug-resistant cells” (Biochem Pharmacol, 1995)
